Key:
Format in all cases: functional, organism-based
[1] = test system: Plasmodium falciparum; assay: Antimalarial activity against chloroquine-sensitive Plasmodium falciparum NF54 infected in RBC after 72 hrs by [3H]hypoxanthine incorporation assay in presence of 0.5 % albumax
[2] = test system: Plasmodium falciparum; assay: Antimalarial activity against chloroquine-sensitive Plasmodium falciparum NF54 infected in RBC after 72 hrs by [3H]hypoxanthine incorporation assay in presence of 50 % serum
[3] = test system: Plasmodium falciparum; assay: Antimalarial activity against chloroquine-sensitive Plasmodium falciparum NF54 infected in RBC after 48 hrs by [3H]hypoxanthine incorporation assay in presence of 0.5 % albumax
[4] = test system: Plasmodium falciparum; assay: Antimalarial activity against chloroquine-sensitive Plasmodium falciparum NF54 infected in RBC after 24 hrs by [3H]hypoxanthine incorporation assay in presence of 0.5 % albumax

| Compound | IC50 [1] [nM] | IC50 [2] [nM] | IC50 [3] [nM] | IC50 [4] [nM] |
| --- | --- | --- | --- | --- |
| CN(C)c1cccc(C(=O)N[C@@H](Cc2ccccc2)[C@H](O)CNC(C)(C)c2ccccc2)c1 | 102 |  |  |  |
| CCCN(CCC)C(=O)c1cccc(C(=O)N[C@@H](Cc2ccccc2)[C@H](O)CNC(C)(C)c2ccc3ccccc3c2)c1 | 45 | 143 |  |  |
| Cn1cnc(C(=O)N[C@@H](Cc2ccccc2)[C@H](O)CNC(C)(C)c2ccccc2)c1 | > 500 |  |  |  |
| CC(C)(NC[C@@H](O)[C@H](Cc1ccccc1)NC(=O)c1ccc(Cl)cc1)c1ccccc1 | 349 |  |  |  |
| CC(C)(C)c1ccc(/C=C/C(=O)N[C@@H](Cc2ccccc2)[C@H](O)CNC(C)(C)c2ccccc2)cc1 | 444 |  |  |  |
| CCCN(CCC)C(=O)c1cccc(C(=O)N[C@@H](Cc2ccccc2)[C@H](O)CNC(C)(C)C)c1 | 24 | 66 |  |  |
| CN1CCCc2cc(C(=O)N[C@@H](Cc3ccccc3)[C@H](O)CNC(C)(C)c3ccccc3)ccc21 | > 500 |  |  |  |
| C[C@@H](NC[C@@H](O)[C@H](Cc1ccccc1)NC(=O)c1cccc(C(=O)N2CCCCCC2)c1)c1ccccc1 | 3.8 | 13 |  |  |
| C[C@@H](NC[C@@H](O)[C@H](Cc1ccccc1)NC(=O)c1ccc(N2CCN(Cc3ccccc3)CC2)cc1)c1ccccc1 | 21 | 39 |  |  |
| C[C@@H](NC[C@@H](O)[C@H](Cc1ccccc1)NC(=O)c1cccc(C(=O)N2CCN(C)CC2)c1)c1ccccc1 | 98 | 102 |  |  |
| CC(C)(NC[C@@H](O)[C@H](Cc1ccccc1)NC(=O)Cc1cccc2ccccc12)c1ccccc1 | > 500 |  |  |  |
| CCCNC(=O)c1cccc(C(=O)N[C@@H](Cc2ccccc2)[C@H](O)CN[C@H](C)c2ccccc2)c1 | 12 | 30 |  |  |
| CCCN(CCC)Cc1cc(C(C)NC[C@@H](O)[C@H](Cc2ccccc2)NC(=O)c2ccc(N3CCN(C)CC3)cc2)ccc1O (stereo not given in full) | 89 | 62 | 75 | 90 |
| C[C@@H](NC[C@@H](O)[C@H](Cc1ccccc1)NC(=O)c1cccc(C(=O)N2CCCC2)c1)c1ccccc1 | 4.9 | 9.3 |  |  |
| CCN(CC)Cc1cc(C(=O)N[C@@H](Cc2ccccc2)[C@H](O)CN[C@H](C)c2ccccc2)ccc1O | 357 | > 500 | 305 | 380 |
| CC(=O)N[C@@H](Cc1ccccc1)[C@H](O)CNC(C)(C)c1ccccc1 | > 500 |  |  |  |
| CCCN(CCC)C(=O)c1ccccc1C(=O)N[C@@H](Cc1ccccc1)[C@H](O)CN[C@H](C)c1ccccc1 | > 500 | > 500 |  |  |
| CN1CCN(c2ccc(C(=O)N[C@@H](Cc3ccccc3)[C@H](O)CNC3CCCC3)cc2)CC1 | 81 | 75 |  |  |
| CCCN(CCC)C(=O)c1cccc(C(=O)N[C@@H](Cc2ccccc2)[C@H](O)CNC(C)(C)c2ccccc2F)c1 | 21 | 142 |  |  |
| CCCN(CCC)C(=O)c1cccc(C(=O)N[C@@H](Cc2ccccc2)[C@H](O)CNC2CCN(C)CC2)c1 | > 500 | > 500 |  |  |
| COCCCC(=O)N[C@@H](Cc1ccccc1)[C@H](O)CNC(C)(C)c1ccccc1 | > 500 |  |  |  |
| CN1CCN(c2ccc(C(=O)N[C@@H](Cc3ccccc3)C(F)(F)CNC3CCCC3)cc2)CC1 | > 500 | > 500 |  |  |
| CCN(CC)Cc1cc(CNC[C@@H](O)[C@H](Cc2ccccc2)NC(=O)c2ccc(N3CCN(C)CC3)cc2)ccc1O | 333 | 167 | 314 | 408 |

| Compound | IC50 [1] [nM] | IC50 [2] [nM] | IC50 [3] [nM] | IC50 [4] [nM] |
| --- | --- | --- | --- | --- |
| CCCN(CCC)C(=O)c1cccc(C(=O)N[C@@H](Cc2ccccc2)[C@H](O)CNC(C)(C)c2ccc(F)cc2)c1 | 24 | 110 |  |  |
| CC(C)(NC[C@@H](O)[C@H](Cc1ccccc1)NC(=O)c1cccc2ncccc12)c1ccccc1 | > 500 |  |  |  |
| CC1CN(c2ccc(C(=O)N[C@@H](Cc3ccccc3)[C@H](O)CN[C@H](C)c3ccccc3)cc2)CCN1 (stereo not given in full) | 190 | 300 |  |  |
| CCCN(CCC)C(=O)c1cccc(C(=O)N[C@@H](Cc2ccccc2)[C@H](O)CNC(C)(C)c2ccc(OC)cc2)c1 | 13 | 44 |  |  |
| CC(C)(NC[C@@H](O)[C@H](Cc1ccccc1)NC(=O)c1ccncc1)c1ccccc1 | > 500 |  |  |  |
| CCCN(CCC)C(=O)c1cccc(C(=O)N[C@@H](Cc2ccccc2)[C@H](O)CNC(C)(C)c2cccc(OC)c2)c1 | < 7.8 | 25 |  |  |
| C[C@@H](NC[C@@H](O)[C@H](Cc1ccccc1)NC(=O)c1ccc(O)c(CN2CCCC2)c1)c1ccccc1 | 261 | 386 |  |  |
| Cc1cc(C(=O)N[C@@H](Cc2ccccc2)[C@H](O)CNC(C)(C)c2ccccc2)nn1C | > 500 |  |  |  |
| CC(C)(NC[C@@H](O)[C@H](Cc1ccccc1)NC(=O)c1cccc(C(F)(F)F)c1)c1ccccc1 | 300 |  |  |  |
| CCCN(CCC)Cc1ccc(Nc2ccc(C(=O)N[C@@H](Cc3ccccc3)[C@H](O)CN[C@H](C)c3ccccc3)cc2)cc1O | 22 | 20 |  | 77 |
| CCCN(CCC)C(=O)c1cccc(C(=O)N[C@@H](Cc2ccccc2)[C@H](O)CNC2CCc3ccccc32)c1 (stereo not given in full) | 48 |  |  |  |
| CC(=O)Nc1cccc(C(=O)N[C@@H](Cc2ccccc2)[C@H](O)CNC(C)(C)c2ccccc2)c1 | 44 |  |  |  |
| CCN(CC)Cc1ccc(Nc2ccc(C(=O)N[C@@H](Cc3ccccc3)[C@H](O)CN[C@H](C)c3ccccc3)cc2)cc1O | < 7.8 | 9 | 15 | 65 |
| Cn1cc(C(=O)N[C@@H](Cc2ccccc2)[C@H](O)CNC(C)(C)c2ccccc2)c2ccccc21 | > 500 |  |  |  |
| CCCN(CCC)C(=O)c1cccc(C(=O)N[C@@H](Cc2ccccc2)[C@H](O)CNC2Cc3ccccc3C2)c1 | 11 |  |  |  |
| CC(NC[C@@H](O)[C@H](Cc1ccccc1)NC(=O)c1ccc(N2CCN(C)CC2)cc1)c1ccc(O)c(CN2CCCCC2)c1 (stereo not given in full) | 203 | 125 |  |  |
| CCCN(CCC)C(=O)c1cccc(C(=O)N[C@@H](Cc2ccccc2)[C@H](O)CN[C@@H](C)c2ccccc2)c1 | 21 |  |  |  |
| CCCN(CCC)C(=O)c1cccc(C(=O)N[C@@H](Cc2ccccc2)[C@H](O)CN2CCN(Cc3ccccc3)CC2)c1 | > 500 |  |  |  |
| CCCN(CCC)C(=O)c1cccc(C(=O)N[C@@H](Cc2ccccc2)[C@@H](O)CNCCCc2ccccc2)c1 | > 500 | > 500 |  |  |
| CC(C)(NC[C@@H](O)[C@H](Cc1ccccc1)NC(=O)C1CCCC1)c1ccccc1 | > 500 |  |  |  |
| CCCN(CCC)C(=O)c1cccc(C(=O)N[C@@H](Cc2ccccc2)[C@H](O)CNC(C)(C)c2cccc(C#N)c2)c1 | < 1.5 | 8.6 |  |  |
| COc1cccc(C(=O)N[C@@H](Cc2ccccc2)[C@H](O)CNC(C)(C)c2ccccc2)c1 | 349 |  |  |  |

Results, then the molecule that gave them:

| IC50 [1] [nM] | IC50 [2] [nM] | IC50 [3] [nM] | IC50 [4] [nM] | Compound |
| --- | --- | --- | --- | --- |
| 146 |  |  |  | CC(C)(NC[C@@H](O)[C@H](Cc1ccccc1)NC(=O)c1ccc2cc[nH]c2c1)c1ccccc1 |
| 186 |  |  |  | CCCN(CCC)C(=O)c1cccc(C(=O)N[C@@H](Cc2ccccc2)[C@H](O)CNCCc2ccccc2)c1 |
| 43 | 126 |  |  | CCCN(CCC)C(=O)c1cccc(C(=O)N[C@@H](Cc2ccccc2)[C@H](O)CNCCCc2ccccc2)c1 |
| 11 | 48 |  |  | CCCN(CCC)C(=O)c1cccc(C(=O)N[C@@H](Cc2ccccc2)[C@H](O)CN[C@H](C)C2CCCCC2)c1 |
| 116 | 435 |  |  | CCCN(CCC)C(=O)c1cccc(C(=O)N[C@@H](Cc2ccccc2)[C@H](O)CNC2(c3ccccc3)CC2)c1 |
| 324 | 466 |  |  | CCCN(CCC)C(=O)c1cccc(C(=O)N[C@@H](Cc2ccccc2)[C@H](O)CN[C@@H](C)C2CCCCC2)c1 |
| > 500 |  |  |  | CC(C)(NC[C@@H](O)[C@H](Cc1ccccc1)NC(=O)Cc1ccccc1)c1ccccc1 |
| 8.3 | 3.6 | < 7.8 | 133 | CCN(CC)Cc1cc(Nc2ccc(C(=O)N[C@@H](Cc3ccccc3)[C@H](O)CN[C@H](C)c3ccccc3)cc2)ccc1O |
| 162 |  |  |  | CC(=O)N1CCN(c2ccc(C(=O)N[C@@H](Cc3ccccc3)[C@H](O)CNC(C)(C)c3ccccc3)cc2)CC1 |
| 37 |  |  |  | CC(C)(NC[C@@H](O)[C@H](Cc1ccccc1)NC(=O)c1cccc(-c2ccccc2)c1)c1ccccc1 |
| 78 | 150 |  |  | CCCN(CCC)C(=O)c1cccc(C(=O)N[C@@H](Cc2ccccc2)[C@H](O)CNC(C)C)c1 |
| 14 | 28 |  |  | CCCN(CCC)C(=O)c1cccc(C(=O)N[C@@H](Cc2ccccc2)[C@H](O)CNC2CCCCC2)c1 |
| 9.6 | 50 |  |  | CCCN(CCC)C(=O)c1cccc(C(=O)N[C@@H](Cc2ccccc2)[C@H](O)CNC(C)(C)c2cccc(F)c2)c1 |
| > 500 | > 500 |  |  | CCCN(CCC)C(=O)c1cccc(C(=O)N[C@H](CCNC(C)C)Cc2ccccc2)c1 |
| 16 | 34 |  |  | CCCN(CCC)C(=O)c1cccc(C(=O)N[C@@H](Cc2ccccc2)[C@H](O)CNC2CCOCC2)c1 |
| > 500 |  |  |  | CCCN(CCC)C(=O)c1cccc(C(=O)N[C@@H](Cc2ccccc2)[C@H](O)CN2CCN(C(C)=O)CC2)c1 |
| > 500 | > 500 |  |  | CC(C)C[C@H](NC(=O)c1ccc(N2CCN(C)CC2)cc1)[C@H](O)CNC1CCCC1 |
| 55 | 188 |  |  | CCCN(CCC)C(=O)c1cccc(C(=O)N[C@@H](Cc2ccccc2)[C@H](O)CNC(C)(C)c2ccc(C#N)cc2)c1 |
| 12 | 168 |  |  | CCCN(CCC)C(=O)c1cccc(C(=O)N[C@@H](Cc2ccccc2)[C@H](O)CNC2(c3ccccc3)CCCC2)c1 |
| > 500 |  |  |  | CCCN(CCC)C(=O)c1cccc(C(=O)N[C@@H](Cc2ccccc2)[C@H](O)CNCc2ccccc2)c1 |
| > 500 | 295 | > 500 | > 500 | CN1CCN(c2ccc(C(=O)N[C@@H](Cc3ccccc3)[C@H](O)CNCc3ccc(O)c(CN4CCCC4)c3)cc2)CC1 |
| 7.6 | 40 |  |  | CCCN(CCC)C(=O)c1cccc(C(=O)N[C@@H](Cc2ccccc2)[C@H](O)CNC(C)(C)c2ccccc2)c1 |

Reference: ChEMBL document CHEMBL2331413, “Novel in vivo active anti-malarials based on a hydroxy-ethyl-amine scaffold” (Bioorg Med Chem Lett, 2013)
